“Also recorded” adds a separate entry of the source.
Experiments:
TMPRSS2 = assay type: cell-based, human; details: Fig.4E
SARS-CoV-2 = assay type: cell-based
ACE2 = assay type: cell-based, human
primary NHBE [1] = assay type: cell-based, human
primary NHBE [2] = details: uninfected primary NHBE, different doses titrated, Fig.1C

| SMILES | TMPRSS2 gene expression (microarray, confirmed by qPCR) (TMPRSS2; 10 µM hydrocortisone, uninfected cells) | TMPRSS2 gene expression (qPCR) (TMPRSS2; 24h pre-treatment 10 µM hydrocortisone, uninfected and virus-infected NHBE, with or without IFN-γ) | virus titers / infectious viral particles in supernatant (plaque forming units) (SARS-CoV-2) | ACE2 gene expression (microarray, confirmed by qPCR) (ACE2) | ACE2 gene expression (qPCR) (ACE2) | genes that may support the cytokine storm (gene expression) (primary NHBE [1]) | type I interferons IFNB1 and IFNE and type III interferons such as IFNL3 (gene expression) (primary NHBE [1]) | APOBEC3A gene expression (primary NHBE [1]; Fig.4A) | known and potential virus entry receptors (gene expression) (primary NHBE [1]; Fig.4C) | genes upregulated by SARS-CoV-2-infection, but downregulated by drug (primary NHBE [1]; Venn diagram, Fig.3E) [genes] | genes reduced by SARS-CoV-2-infection, but increased by drug (primary NHBE [1]; Venn diagram, Fig.7C) [genes] | global gene expression changes (primary NHBE [1]; icatibant 1 µM or hydrocortisone 10 µM, volcano plots, Fig.3D) | antiviral epithelial response (gene expression) (primary NHBE [1]; in general, Fig.4A) | antiviral response genes significantly downregulated (primary NHBE [1]; over all conditions, Fig.8A) | transcripts regulated by both, hydrocortisone and icatibant (primary NHBE [1]; overlap of the two drugs, majority long non-coding RNAs, Fig.3E) [transcripts] | potential cytotoxicity (LDH) (primary NHBE [2]) | infection-mediated cytotoxicity (LDH), rescue (SARS-CoV-2 infected NHBE; 1 µM icatibant added 6h post-inoculation, Fig.5F) | infection-mediated cytotoxicity (LDH) (SARS-CoV-2 infected NHBE; 24h pre-treatment 1 µM icatibant, then 24h SARS-CoV-2 inoculation, n=12, Fig.5E) |
| --- | --- | --- | --- | --- | --- | --- | --- | --- | --- | --- | --- | --- | --- | --- | --- | --- | --- | --- |
| C[C@]12CCC(=O)C=C1CC[C@@H]1[C@@H]2[C@@H](O)C[C@@]2(C)[C@H]1CC[C@]2(O)C(=O)CO [hydrocortisone] | upregulation of ACE2 and TMPRSS2 on the transcriptional level of uninfected cells | still enhanced TMPRSS2 expression in both, uninfected and virus-infected NHBE | no adverse effect on the virus titers; also recorded: did not reduce virus titers | upregulation of ACE2 and TMPRSS2 on the transcriptional level of uninfected cells | did not change | not significantly influenced | even slightly enhanced | even increased | rather enhances receptors, like TMPRSS2, 11B and 11E proteins | 300 | 198 | almost balanced relationship between suppression and induction of gene expression | changes of the antiviral epithelial response were not induced | significantly reduced DNAJC3, CREBZF, GPAM, BNIP3L and FAM111A | 86 |  |  |  |
| NC(N)=NCCC[C@@H](N)C(=O)N[C@@H](CCCN=C(N)N)C(=O)N1CCC[C@H]1C(=O)N1C[C@H](O)C[C@H]1C(=O)NCC(=O)N[C@@H](Cc1cccs1)C(=O)N[C@@H](CO)C(=O)N1Cc2ccccc2C[C@@H]1C(=O)N1[C@H](C(=O)N[C@@H](CCCN=C(N)N)C(=O)O)C[C@@H]2CCCC[C@@H]21 [icatibant] |  |  |  |  |  |  |  |  |  |  |  |  |  |  |  | no toxic effects in NHBE cell cultures, but even exhibits a cell-protecting effect | significantly reduced | significantly reduced |
